# Values quoted from earlier work in patent US20240279338A1, “Combination Treatment of Cancer” (Ares Trading S.A., priority 2021, published 2024).
# Biological target: T1, A3 receptor (Homo sapiens, UniProt P0DMS8)
# T1 sequence (P0DMS8 1-318): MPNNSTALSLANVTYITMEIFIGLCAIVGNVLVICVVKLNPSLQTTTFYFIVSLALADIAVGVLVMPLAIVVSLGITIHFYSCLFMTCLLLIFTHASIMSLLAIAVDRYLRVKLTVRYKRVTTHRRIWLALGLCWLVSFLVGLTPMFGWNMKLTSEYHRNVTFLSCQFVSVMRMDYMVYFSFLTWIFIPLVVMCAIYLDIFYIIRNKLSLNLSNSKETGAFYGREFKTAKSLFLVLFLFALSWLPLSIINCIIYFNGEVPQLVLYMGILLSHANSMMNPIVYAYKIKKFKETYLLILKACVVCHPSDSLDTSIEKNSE
# Conditions: cited from earlier work
smiles,measurement,value
Nc1ncnc2c1ncn2[C@@H]1O[C@H](CO)[C@@H](O)[C@H]1O [adenosine],adenosine sensitivity (affinity) of receptor,100 nM
